From patent US20180085356A1, “METHOD OF TREATING DISEASE CHARACTERISED BY PROTEIN AGGREGATE DEPOSITION IN NEURONAL CELLS” (CHRONOS THERAPEUTICS LIMITED, priority 2013, published 2018) come the findings set out here.

For experiment [1], the system named is α-synuclein and phospho-Tau (p-Tau). Briefly: Immunohistochemistry for α-synuclein and p-Tau in SNc of 6-OHDA-lesioned rats. The following applies: 1 mg/kg s.c., 3 months; p<0.05 vs. vehicle. The format is in vivo, rat. On the procedure:
After 3 months, 10 randomly selected rats (5 from each group) were terminally anaesthetised. Blood and striatal tissue samples were taken and the posterior brain block containing the SNc was fixed by immersion in 4% paraformaldehyde in 0.1 M phosphate buffer (PB) for 24 hours. Following cryoprotection in 30% sucrose in 0.1M PB for 2-3 days and freezing the blocks in liquid nitrogen, samples were stored at −80° C. for α-synuclein and phospho-Tau (p-Tau) immunohistochemistry (IHC). This was repeated for 11 rats at 6 months (randomly selected from the surviving rats in both groups). Immunohistochemistry for α-synuclein and p-Tau was carried out. Brain samples containing the SNc region were double-immunostained for p-Tau (AT8) and α-synuclein. The number of positive cells for each single stain and the number of double-stained cells was manually counted for 6 sections per animal.

Experiment [2] concerns FET3, SOD1, SOD2, COX9 transcripts. Kind of experiment: Yeast transcript analysis by RT-qPCR. The format is cell-based, Saccharomyces cerevisiae. The following applies: 10 μg/ml tacrolimus, cultures aged 3 days, normalised to U4 snRNA. On the procedure:
A pre-culture was diluted 1/100 into synthetic complete medium and tacrolimus was added to a final concentration of 10 μg/ml. (An equivalent volume of DMSO was added to a parallel culture as a control.) The cultures were then allowed to age for 3 days, before RNA extraction and transcript analysis by reverse transcription-qPCR (RT-qPCR). (Transcript levels are normalised to that of the U4 snRNA.)

For experiment [3], the system named is C. elegans expressing wild-type human SOD-1 in the body wall muscle. Kind of experiment: C. elegans lifespan assay, wild-type SOD-1 strain. The format is in vivo, Caenorhabditis elegans. On the procedure: Tacrolimus was tested in a number of disease models using the nematode worm, Caenorhabditis elegans, in which aggregate-prone proteins associated with neurodegenerative diseases are expressed in certain cell types. The effect of tacrolimus was determined by measuring the lifespan of worms in the presence and absence of tacrolimus, using the following general methodology. All of the worms tested using these assays also contained, in addition to the transgene expressing the disease-related protein, a mutation in the bus-5 gene which confers drug-sensitivity.
C. elegans cultures were synchronised by incubating an asynchronous culture in basic sodium hypochlorite solution to kill everything but the bleach-resistant mature eggs. […] From this point on, each ageing population was inspected at regular intervals (e.g. daily) and viability assessed by counting the number of dead worms.
The cumulative number of dead worms for each population was used to generate a survival/viability plot to determine chronological lifespan (CLS). Survival was analysed using the Kaplan-Meier log-rank survival analysis method, using the Online Application for Survival (OASIS; see http://sbi.postech.ac.kr/oasis). […]
The effect of tacrolimus on C. elegans expressing wild-type or mutant human SOD-1 in the body wall muscle was determined. […]

The test system of experiment [4] is TDP-43(Q331K) mice. Kind of experiment: Rotarod testing of TDP-43(Q331K) transgenic mice. The format is in vivo, mouse. The following applies: tacrolimus 0.25, 1.25 and 2.5 mg/kg p.o. 6 days a week for 70 weeks vs. vehicle.
Experiment [5] has as its system S. cerevisiae. Kind of experiment: Chronological lifespan of ageing stationary phase yeast culture (outgrowth viability). The format is cell-based, Saccharomyces cerevisiae. The following applies: 40 μM tacrolimus. On the procedure: Analysis of chronological lifespan in yeast involves assessment of the viability of a stationary phase culture over time. Yeast are stored in glycerol stocks at −80° C., inoculated into YPD (Yeast extract-Peptone-Dextrose) and incubated overnight. From this culture, a 1/25 dilution is prepared to produce an ageing culture that is incubated at 30° C. throughout the duration of the experiment. The first 24 hours of yeast growth are assessed in Complete Synthetic Media (CSM) to confirm that the culture has reached stationary phase. After 24 hours, when the culture has completed the exponential growth phase and has entered stationary phase, its viability can then be assessed. Viability is measured by taking a 5 μl sample of the ageing culture and diluting this into a total volume of 150 μlYPD. Growth of this “outgrowth culture” is measured using the Bioscreen-C MBR machine that both incubates the plates and measures optical turbidity every 20 minutes. Comparison of the viability curves of outgrowth cultures taken over several successive days can be used to observe the reduction in viability of the stationary phase culture over time. Specifically, the interval between the time taken for the outgrowth culture to reach OD600=0.6 on day 1, and the time taken to reach OD600=0.6 on a later day (for example day 7) can be used as a measure of the “ageing rate” of the culture. […]

With `C=CC[C@@H]1/C=C(\C)C[C@H](C)C[C@H](OC)[C@H]2O[C@@](O)(C(=O)C(=O)N3CCCC[C@H]3C(=O)O[C@H](/C(C)=C/[C@@H]3CC[C@@H](O)[C@H](OC)C3)[C@H](C)[C@@H](O)CC1=O)[C@H](C)C[C@@H]2OC` [tacrolimus, Tacrolimus], in experiment [1], the “number of cells staining positively for p-Tau” value is reported as “lower counts of positive cells” and the “number of cells staining positively for α-synuclein” value is listed as “lower counts of positive cells”. For the same molecule, in experiment [2], the “expression of transcripts FET3, SOD1, SOD2 and COX9” value is “upregulated”. Moreover, the lifespan entry in experiment [3] (10 μg/ml in NGM agar, p<0.05 DMSO vs. Tacrolimus) is “significant increase in lifespan”. Also, the “increase in lifespan when bec-1 knocked down by RNAi” value in experiment [3] (bec-1 RNAi, p>0.05 vs. bec-1 RNAi DMSO) is on record as “virtually abolished”. In addition, the “progression of motor decline (rotarod latency)” value in experiment [4] is “delays the progression of motor decline”. Moreover, the “rate of ageing / chronological lifespan of stationary phase yeast culture” value in experiment [5] is “significantly delays the rate of ageing and extends the chronological lifespan”. Also, the “interval between the x-intercepts at OD600=0.6 on days 1 and 9” value in experiment [5] (control without tacrolimus 287 minutes) amounted to 63 min.
